Measured values from patent US9393288B2, “Methods of treating diseases associated with PPARγ” (The University of Vermont and State Agricultural College, priority 2012, dated 2016).

Columns and labels:
[1] = tested on: parenchymal arterioles (PA); assay: Pressurized arteriograph: vascular reactivity and structure of PA from relaxin-treated NP Sprague Dawley rats; format: in vivo, rat; conditions: GW9662 10 mg/kg daily in food during relaxin infusion, 5 mmHg
Source text: (§1) Animals and Treatment Groups: All procedures were approved by the Institutional Animal Care and Use Committee and conducted in accordance with the National Institutes of Health Guide for the Care and Use of Laboratory Animals. Female virgin NP Sprague Dawley rats (250-300 g, 14-16 weeks, Charles River, Canada) were used for all experiments and housed in the University of Vermont Animal Care Facility. Animals were randomly selected and grouped as untreated (N=4), treated with recombinant human relaxin-2 (relaxin, 4 μg/hr; N=14), relaxin plus a specific PPARγ inhibitor GW9662 (10 mg/kg daily in food; N=8), or vehicle (20 mM sodium acetate; N=14) for 10 days through osmotic minipumps (Alzet 2ML2, Durect Corp., Cupertino, Calif., USA). GW9662 treatment was started 1 day before and for the duration of relaxin treatment to ensure PPARγ was inhibited. Animals were anesthetized with 3% isoflurane and minipumps implanted subcutaneously in the back of the neck. All animals received post-surgical analgesic (buprenorphine, 50 μg/kg, s.c.). Relaxin infusion was continuous for 10 days until animals were euthanized for vessel experiments and tissue collection. The minipumps used were capable of delivering relaxin for 14 days and thus tissue collection was within this duration.
Vessel Preparation and Pressurized Arteriograph System: After collecting trunk blood, the brain was quickly removed and placed in cold physiological salt solution (PSS). In the first set of experiments, PA between the M1 and M2 region of the MCA territory and the MCA from the same animals were carefully isolated from vehicle- or relaxin-treated animals and mounted on glass cannulas in a dual-chambered arteriograph such that one PA and one MCA from each animal were studied simultaneously. PA were identified as branches off the MCA that penetrated into the brain tissue, as previously described (25). In the second set of experiments, PA from the same brain region as above were dissected from relaxin+GW9662-treated animal and compared to PA from vehicle- and relaxin-treated animals. MCA were not studied in this second set of animals because there was no effect of relaxin on that segment of the vasculature. The proximal cannulas were connected to an in-line pressure transducer and a servo-null pressure control system (Living Systems Instrumentation, Burlington, Vt., USA) that allowed intravascular pressure to be maintained at a set pressure or changed at a variable rate. The distal cannulas were closed during the experiment to avoid flow-mediated responses. Temperature and pH were continuously measured and maintained at 37.0±0.5° C. and 7.40±0.05, respectively. Measurements of inner diameter (ID) and wall thickness (WT) were made via video microscopy (Living Systems Instrumentation).
Vascular Reactivity and Structural Characteristics in PA and MCA: For the first set of experiments, PA and MCA were equilibrated for 1 hour at 25 mmHg, after which myogenic activity was determined by stepwise increases in pressure from 40 to 100 mmHg for PA or 50 to 175 mmHg for MCA. ID and WT were measured at each pressure once stable. Changes in ID and WT were measured in PA only in response to small- (SKCa) and intermediate- (IKCa) conductance calcium-activated potassium channels blockers, apamin (3×10^−7 M) and TRAM-34 (10^−6 M), respectively. PA are unique in that the contribution of endothelium-derived hyperpolarizing factors (EDHF) to tone is greater than most vessels Cipolla et al. (2009) Stroke 40, 1451-1457. Thus, inhibition of SKCa/IKCa channels, a critical component in the EDHF pathway, causes constriction in PA Cipolla et al. (2009) Stroke 40, 1451-1457. We therefore assessed the effect of relaxin on constriction of PA in response to SKCa/IKCa channel inhibition in order to assess this unique pathway. […]

[2] = tested on: PPARγ target genes; assay: PPARγ target gene expression (real-time qPCR) in adipose tissue, pial arteries and PA, NP Sprague Dawley rats; format: in vivo, rat; conditions: GW9662 co-treatment
Source text: as §1
Determination of RXFP1 and PPARγ Target Gene Expression: MCA and PA from 4 untreated rats were collected to determine expression level of RXFP1, the primary relaxin receptor, using real-time qPCR methods. We also collected adipose tissue, pial arteries, and PA from vehicle, relaxin and relaxin+GW9662 groups (n=6 for each group) for determination of PPARγ target gene expression. All collected samples were stored in RNase inhibitor (1 unit/μl, RiboLock, Fermentas, Glen Burnie, Md., USA) at −80° C. for comparing expression of fatty acid translocase (FAT)/CD36 and liver X receptors-α (LXRα) for adipose tissue, and plasminogen activator inhibitor-1 (PAI-1) for vasculature. Standard techniques for real-time qPCR were performed by the Vermont Cancer Center DNA analysis facility at the University of Vermont, as described previously Cipolla et al. (2009) Stroke 40, 1451-1457. Briefly, RNA was extracted from tissues and concentration and integrity was determined by a NanoDrop ND-1000 Spectrophotometer (Wilmington, Del.) and an Agilent 2100 Bioanalyzer (Santa Clara, Calif., USA), respectively. Samples with low RNA quality were excluded. cDNA was then made by a SuperScript III Kit (Invitrogen, Carlsbad, Calif., USA). Real-time qPCR was set up as follows: 10 μL Universal PCR Master Mix (Applied Biosystems, Foster City, Calif., USA), 1 μL Assay on Demand (Applied Biosystems), 8 μL water, and 1 μL cDNA. β2-microglobulin (B2M, housekeeping control) and target genes were assessed using Assays on Demand from Applied Biosystems. […] Primers were designed across an exon-exon junction to avoid detecting genomic DNA. Thus, no DNase treatment of samples was necessary. All samples were run in duplicates using a 7900HT Sequence Detection System (Applied Biosystems). […]
Data Calculations and Statistical Analysis: Percent tone was calculated as percent decrease in ID from the passive diameter at each intravascular pressure: [1−(IDactive/IDpassive)]×100%. Outer diameter (OD) was calculated from measured ID and WT: ID+2WT. Cross-sectional area (CSA) of the wall was calculated as: [(OD/2)2−(ID/2)2]×π. Data from qPCR study were analyzed using the −2^ΔΔCT method, as described previously Livak et al. (2001) Methods 25, 402-408. […]

[3] = tested on: parenchymal arterioles (PA); assay: SKCa/IKCa channel blockers added to isolated pressurized PA; set-up: species or system rat; conditions: apamin 3×10^−7 M, TRAM-34 10^−6 M in the bath
Protocol: Vascular Reactivity and Structural Characteristics in PA and MCA: For the first set of experiments, PA and MCA were equilibrated for 1 hour at 25 mmHg, after which myogenic activity was determined by stepwise increases in pressure from 40 to 100 mmHg for PA or 50 to 175 mmHg for MCA. ID and WT were measured at each pressure once stable. Changes in ID and WT were measured in PA only in response to small- (SKCa) and intermediate- (IKCa) conductance calcium-activated potassium channels blockers, apamin (3×10^−7 M) and TRAM-34 (10^−6 M), respectively. PA are unique in that the contribution of endothelium-derived hyperpolarizing factors (EDHF) to tone is greater than most vessels Cipolla et al. (2009) Stroke 40, 1451-1457. Thus, inhibition of SKCa/IKCa channels, a critical component in the EDHF pathway, causes constriction in PA Cipolla et al. (2009) Stroke 40, 1451-1457. We therefore assessed the effect of relaxin on constriction of PA in response to SKCa/IKCa channel inhibition in order to assess this unique pathway. To obtain structural measurements, ID and WT were recorded at pressures between 5 to 200 mmHg for PA or 5 to 175 mmHg for MCA after papaverine (10^−4 M) and diltiazem (10^−5 M) were added to the bath. For the second set of experiments in which animals were treated with relaxin+GW9662, passive structural measurements were made as described above.

[4] = tested on: parenchymal arterioles (PA); assay: Pressurized arteriograph: vascular reactivity and structure of PA from female SHR; format: in vivo, rat; conditions: SHR-F-Rln-Axi vs SHR-F-Rln
Protocol: A separate group of SHR-F was used to determine if relaxin crosses the BBB by treating with relaxin (4 μg/hr) for 14 days and measuring relaxin concentration in cerebrospinal fluid (CSF) and serum (SHR-F-Rln-CSF, n=4). For the osmotic pump implant, animals were anesthetized with 3% isoflurane and minipumps implanted subcutaneously in the back of the neck. All animals received post-surgical analgesia (buprenorphine, 50 μg/kg, s.c.). Relaxin infusion was continuous for 14 days until animals were euthanized for isolated vessel experiments and tissue collection.
After collecting trunk blood, the brain was quickly removed and placed in cold physiological salt solution (PSS). PA between the M1 and M2 region of the MCA territory and the MCA from the same animals were carefully isolated from WKY-F, SHR-F, and SHR-F-Rln groups and mounted on glass cannulas. PA were identified as branches off the MCA that penetrated into the brain tissue, as previously described (han, S. L., and Cipolla, M. J. (2011) Relaxin causes selective outward remodeling of brain parenchymal arterioles via activation of peroxisome proliferator-activated receptor-gamma. FASEB J 25, 3229-3239). […] The proximal cannula was connected to an in-line pressure transducer and a servo-null pressure control system (Living Systems Instrumentation, Burlington, Vt., USA) that allowed intravascular pressure to be maintained at a set pressure or changed at a variable rate. The distal cannula was closed during the experiment to avoid flow-mediated responses. Temperature and pH were continuously measured and maintained at 37.0±0.5° C. and 7.40±0.05, respectively. Measurements of inner diameter (ID) and wall thickness (WT) were made via video microscopy (Living Systems Instrumentation, Burlington, Vt.).
PA and MCA were equilibrated for 1 hour, after which myogenic activity was determined by stepwise increases in pressure from 40 to 100 mmHg for PA or 50 to 175 mmHg for MCA. ID and WT were measured at each pressure once stable. Endothelium-dependent dilation was studied by adding NS309 (10^−8-10^−5 M), an activator of small- and intermediate-conductance calcium-activated potassium channels (SKCa, IKCa). NS309 was washed out of the bath and a single concentration of the nitric oxide synthase (NOS) inhibitor L-nitro-n-arginine (L-NNA, 10^−4 M) added to the bath. Constriction to NOS inhibition was used as an additional indicator of endothelial function. In the presence of L-NNA, sodium nitroprusside (SNP, 10^−8-10^−5 M) was added to the bath to assess endothelium-independent vasodilation. To obtain structural measurements, ID and WT were recorded at pressures between 5 to 200 mmHg for PA or 5 to 175 mmHg for MCA in zero-calcium PSS containing ethylene glycol tetra-acetic acid (EGTA) and outer diameter (OD) and distensibility calculated.
Percent tone was calculated as percent decrease in ID from the passive diameter at each intravascular pressure: [1−(IDactive/IDpassive)]×100. Percent reactivity for vasodilators was calculated as ((IDdose−IDstart)/(IDpassive−IDstart))×100. Percent constriction for vasoconstrictor was calculated as (1−(IDdose/IDstart))×100. OD was calculated from measured ID and WT: ID+2WT. Distensibility at a given pressure was calculated as (IDpassive−IDoriginal)/(IDoriginal)×100, where IDoriginal is defined as passive inner diameter determined at lowest pressure (5 mmHg). Data from qPCR study were analyzed using the −2^ΔΔCT method, as described previously (Livak, K. J., and Schmittgen, T. D. (2001) Analysis of relative gene expression data using real-time quantitative PCR and the 2(−Delta Delta C(T)) Method. Methods 25, 402-408). Data were removed when the Ct values of technical replicates differed by more than 0.5.

O=C(Nc1ccccc1)c1cc([N+](=O)[O-])ccc1Cl [GW9662, reference compound]
Structural changes of PA induced by relaxin [1]: prevented
Relaxin-induced change of CD36 gene expression in adipose tissue [2]: normalized

Clc1ccccc1C(c1ccccc1)(c1ccccc1)n1cccn1 [TRAM-34]
Vasoconstriction of PA [3]: greater vasoconstriction

CNC(=O)c1ccccc1Sc1ccc2c(/C=C/c3ccccn3)n[nH]c2c1 [axitinib, reference compound]
Relaxin-induced increased distensibility of PA [4]: no effect
